According to PubChem BioAssay AID1259407 (Chemical Carcinogenesis Research Information System (CCRIS), 2018):
Activity calls are given as the source filed them. The rule behind the calls is not given here.

System: CCRIS mutagenicity, Ames/micronucleus/aberration tests
Experiment: CCRIS mutagenicity studies
Text: The CCRIS database contains chemical records with carcinogenicity, mutagenicity, tumor promotion, and tumor inhibition test results. It was developed by the National Cancer Institute (NCI). Data are derived from studies cited in primary journals, current awareness tools, NCI reports, and other sources. Test results have been reviewed by experts in carcinogenesis and mutagenesis.
CCRIS provides historical information from the years 1985 - 2011. It is no longer updated.
This is an archive assay for CCRIS mutagenicity studies.

[1] = Test System: AMES SALMONELLA TYPHIMURIUM, Strain/Indicator: TA98, Metabolic Activation: NONE, Method: STANDARD PLATE
[2] = Test System: AMES SALMONELLA TYPHIMURIUM, Strain/Indicator: TA100, Metabolic Activation: NONE, Method: PREINCUBATION
[3] = Test System: AMES SALMONELLA TYPHIMURIUM, Strain/Indicator: TA100, Metabolic Activation: NONE, Method: STANDARD PLATE
[4] = Test System: AMES SALMONELLA TYPHIMURIUM, Strain/Indicator: TA97, Metabolic Activation: NONE, Method: PREINCUBATION
[5] = Test System: AMES SALMONELLA TYPHIMURIUM, Strain/Indicator: TA97, Metabolic Activation: RAT, LIVER, S-9, AROCLOR 1254, Method: PREINCUBATION
[6] = Test System: AMES SALMONELLA TYPHIMURIUM, Strain/Indicator: TA100, Metabolic Activation: RAT, LIVER, S-9, AROCLOR 1254, Method: PREINCUBATION
[7] = Test System: CHINESE HAMSTER V-79, Strain/Indicator: V-79/8-AZAGUANINE, Metabolic Activation: NONE

## COc1ccc2[nH]cc(CCNC(C)=O)c2c1
Test System: AMES SALMONELLA TYPHIMURIUM, Strain/Indicator: TA97, Metabolic Activation: NONE, Method: STANDARD PLATE
  mutagenic call: inactive; negative
Test System: AMES SALMONELLA TYPHIMURIUM, Strain/Indicator: TA97, Metabolic Activation: RAT, LIVER, S-9, AROCLOR 1254, Method: STANDARD PLATE
  mutagenic call: inactive; negative
Test System: AMES SALMONELLA TYPHIMURIUM, Strain/Indicator: TA97A, Metabolic Activation: NONE, Method: STANDARD PLATE
  mutagenic call: inactive; negative
Test System: AMES SALMONELLA TYPHIMURIUM, Strain/Indicator: TA97A, Metabolic Activation: RAT LIVER S-9, PHENOBARBITOL/BETA-NAPHTHOFLAVONE, Method: STANDARD PLATE
  mutagenic call: inactive; negative
[1]
  mutagenic call: inactive; negative
Test System: AMES SALMONELLA TYPHIMURIUM, Strain/Indicator: TA98, Metabolic Activation: RAT LIVER S-9, PHENOBARBITOL/BETA-NAPHTHOFLAVONE, Method: STANDARD PLATE
  mutagenic call: inactive; negative
Test System: AMES SALMONELLA TYPHIMURIUM, Strain/Indicator: TA98, Metabolic Activation: RAT, LIVER, S-9, AROCLOR 1254, Method: STANDARD PLATE
  mutagenic call: inactive; negative
[2]
  mutagenic call: inactive; negative
[3]
  mutagenic call: inactive; negative
Test System: AMES SALMONELLA TYPHIMURIUM, Strain/Indicator: TA100, Metabolic Activation: RAT LIVER S-9, PHENOBARBITOL/BETA-NAPHTHOFLAVONE, Method: PREINCUBATION
  mutagenic call: inactive; negative
Test System: AMES SALMONELLA TYPHIMURIUM, Strain/Indicator: TA100, Metabolic Activation: RAT LIVER S-9, PHENOBARBITOL/BETA-NAPHTHOFLAVONE, Method: STANDARD PLATE
  mutagenic call: inactive; negative
Test System: AMES SALMONELLA TYPHIMURIUM, Strain/Indicator: TA100, Metabolic Activation: RAT, LIVER, S-9, AROCLOR 1254, Method: STANDARD PLATE
  mutagenic call: inactive; negative
Test System: AMES SALMONELLA TYPHIMURIUM, Strain/Indicator: TA1535, Metabolic Activation: NONE, Method: STANDARD PLATE
  mutagenic call: inactive; negative
Test System: AMES SALMONELLA TYPHIMURIUM, Strain/Indicator: TA1535, Metabolic Activation: RAT LIVER S-9, PHENOBARBITOL/BETA-NAPHTHOFLAVONE, Method: STANDARD PLATE
  mutagenic call: inactive; negative
Test System: E.COLI, Strain/Indicator: WP2/UVRA, Metabolic Activation: NONE, Method: STANDARD PLATE
  mutagenic call: inactive; negative
Test System: E.COLI, Strain/Indicator: WP2/UVRA, Metabolic Activation: RAT LIVER S-9, PHENOBARBITOL/BETA-NAPHTHOFLAVONE, Method: STANDARD PLATE
  mutagenic call: inactive; negative

## COc1cc2c(c3oc(=O)c4c(c13)CCOC4=O)[C@@H]1CCO[C@@H]1O2
[2]
  mutagenic call: inactive; negative
Test System: AMES SALMONELLA TYPHIMURIUM, Strain/Indicator: TA100, Metabolic Activation: RAT, LIVER, S-9, PHENOBARBITAL, Method: PREINCUBATION
  mutagenic call: inactive; negative

## Cc1cn([C@H]2C[C@H](O)[C@@H](CO)O2)c(=O)[nH]c1=O
[4]
  mutagenic call: inactive; negative
[5]
  mutagenic call: inactive; negative
[2]
  mutagenic call: inactive; negative
[6]
  mutagenic call: inactive; negative
Test System: CHINESE HAMSTER V-79, Strain/Indicator: V-79 (HPRT)/6-THIOGUANINE, Metabolic Activation: NONE, Method: STANDARD PLATE
  mutagenic call: inactive; negative
Test System: CHINESE HAMSTER V-79, Strain/Indicator: V-79/6-THIOGUANINE, Metabolic Activation: NONE, Method: STANDARD PLATE
  mutagenic call: active; positive
[7]
  mutagenic call: inactive; negative

## CCC1(C)CO1 (stereo not drawn)
[1]
  mutagenic call: inactive; negative
[3]
  mutagenic call: inactive; negative

## CS(=N)(=O)CCC(N)C(=O)O (stereo not drawn)
Test System: AMES SALMONELLA TYPHIMURIUM, Strain/Indicator: TA102, Metabolic Activation: NONE, Method: STANDARD PLATE
  mutagenic call: inactive; negative
Test System: AMES SALMONELLA TYPHIMURIUM, Strain/Indicator: TA102, Metabolic Activation: RAT, LIVER, S-9, AROCLOR 1254, Method: STANDARD PLATE
  mutagenic call: inactive; negative

## Nc1nc(=O)n([C@H]2C[C@H](O)[C@@H](CO)O2)cc1CCCl
[4]
  mutagenic call: inactive; negative
[5]
  mutagenic call: inactive; negative
Test System: AMES SALMONELLA TYPHIMURIUM, Strain/Indicator: TA98, Metabolic Activation: NONE, Method: PREINCUBATION
  mutagenic call: inactive; negative
Test System: AMES SALMONELLA TYPHIMURIUM, Strain/Indicator: TA98, Metabolic Activation: RAT, LIVER, S-9, AROCLOR 1254, Method: PREINCUBATION
  mutagenic call: inactive; negative
[2]
  mutagenic call: inactive; negative
[6]
  mutagenic call: inactive; negative
Test System: AMES SALMONELLA TYPHIMURIUM, Strain/Indicator: TA102, Metabolic Activation: NONE, Method: PREINCUBATION
  mutagenic call: inactive; negative
Test System: AMES SALMONELLA TYPHIMURIUM, Strain/Indicator: TA102, Metabolic Activation: RAT, LIVER, S-9, AROCLOR 1254, Method: PREINCUBATION
  mutagenic call: inactive; negative
Test System: AMES SALMONELLA TYPHIMURIUM, Strain/Indicator: TA104, Metabolic Activation: NONE, Method: PREINCUBATION
  mutagenic call: inactive; negative
Test System: AMES SALMONELLA TYPHIMURIUM, Strain/Indicator: TA104, Metabolic Activation: RAT, LIVER, S-9, AROCLOR 1254, Method: PREINCUBATION
  mutagenic call: inactive; negative
Test System: AMES SALMONELLA TYPHIMURIUM, Strain/Indicator: TA1535, Metabolic Activation: NONE, Method: PREINCUBATION
  mutagenic call: inactive; negative
Test System: AMES SALMONELLA TYPHIMURIUM, Strain/Indicator: TA1535, Metabolic Activation: RAT, LIVER, S-9, AROCLOR 1254, Method: PREINCUBATION
  mutagenic call: inactive; negative
Test System: AMES SALMONELLA TYPHIMURIUM, Strain/Indicator: TA1537, Metabolic Activation: NONE, Method: PREINCUBATION
  mutagenic call: inactive; negative
Test System: AMES SALMONELLA TYPHIMURIUM, Strain/Indicator: TA1537, Metabolic Activation: RAT, LIVER, S-9, AROCLOR 1254, Method: PREINCUBATION
  mutagenic call: inactive; negative
Test System: AMES SALMONELLA TYPHIMURIUM, Strain/Indicator: TA1538, Metabolic Activation: NONE, Method: PREINCUBATION
  mutagenic call: inactive; negative
Test System: AMES SALMONELLA TYPHIMURIUM, Strain/Indicator: TA1538, Metabolic Activation: RAT, LIVER, S-9, AROCLOR 1254, Method: PREINCUBATION
  mutagenic call: inactive; negative
[7]
  mutagenic call: inactive; negative

## CCNc1cc2oc(=O)cc(C)c2cc1C
Test System: AMES SALMONELLA TYPHIMURIUM, Strain/Indicator: TA1538, Metabolic Activation: NONE, Method: STANDARD PLATE
  mutagenic call: inactive; negative
Test System: AMES SALMONELLA TYPHIMURIUM, Strain/Indicator: TA1538, Metabolic Activation: RAT, LIVER, S-9, AROCLOR 1254, Method: STANDARD PLATE
  mutagenic call: inactive; negative
